Test results as given in patent US11330999B2 (MEMORIAL SLOAN KETTERING CANCER CENTER, priority 2017, dated 2022).

Tests used:
[1] = Hyperpolarized T1 measurement of 13C,15N-xanthine at 1T; assay type: physicochemical; settings: mono-exponential decay fit corrected for flip angle
Method: (§1) A preparation containing 0.15-0.2 M [2-^13C, 1,3-^15N2]-3,7-dihydro-1H-purine-2,6-dione (6, as described in Example 1) and the OX063 radical was hyperpolarized using a SPINlab hyperpolarizer. T1 measurements were performed using 1T Magritek Spectrometer. For the acquisition of hyperpolarized spectra, data was acquired with a 5 s repetition time and 15° excitation for a total of 45 s. In vitro enzymatic experiments to evaluate the activity of XO in oxidizing xanthine (XA) to uric acid (UA) using superoxide as a cofactor were performed using 100 mg of mouse liver extract together with a PMS/NADH+ system to generate O^2−. ^13C NMR spectra was acquired using a 14.1T NMR spectrometer.
(§2) Compound 6 was hyperpolarized. The ^13C chemical shift between hyperpolarized XA and hyperpolarized UA was measured and determined to be 0.8 ppm. After dissolution, spectra of compound 6 were obtained and fit to a mono-exponential decay function, correcting for flip angle, to determine the spin-lattice relaxation time. A T1 of 77±1.4 s was measured (FIG. 2).

Xanthine Oxidase (XO) = target: T1, Xanthine Oxidase (XO) (Mus musculus, UniProt Q00519); experiment: In vitro oxidation of xanthine by XO in mouse liver extract with O2− (PMS/NADH system), 13C NMR; assay type: biochemical; settings: 100 mg mouse liver extract, in the presence of O2−
T1 construct: from tissue; host or cells: mouse liver extract
Method: as §1, §2

U251 cells = experiment: CellROX green fluorescence microscopy of intracellular ROS; assay type: cell-based; settings: menadione-treated U251 cells, co-incubation for 45 min
Method: Western blots for XO and xanthine transporter were performed using 20 ng of protein extract from 14 cell lines. In vitro fluorescent microscopy using CellROX green was performed in U251 cells to evaluate intracellular reactive oxygen species (ROS) and the effect of xanthine as an ROS scavenger. 14 different cancer cell lines from renal, sarcoma, lung, prostate, breast, pancreatic, oral, epithelial cancer were also screened to evaluate expression of xanthine transporter and XO. In all the cells, a high expression of XO was observed, whereas xanthine transporter was variable between the cell lines, with the largest expression in U251 cells. Therefore, this cell line was used for further in vitro fluorescence experiments (FIG. 3).

[2] = FWHM of 13C NMR peaks at 14.1T (quadrupolar relaxation at guanidine-carbon); assay type: physicochemical; settings: for FWHM of the guanidine-carbon peak / FWHM of carbon-1: 14.1T 13C NMR; for FWHM of carbon-1: internal standard
Method: (§3) To confirm the reduction of quadrupolar relaxation at the guanidine-carbon by ^15N enrichment, ^13C NMR spectra for unlabeled and [6-^13C, 6-^15N3]-L-Arginine-HCl (21, as described in Example 2) was obtained with a 14.1T ^13C NMR. The full width half max (FWHM) of the guanidine-carbon peak was measured, and the FWHM of the carbon-1 peak was used as an internal standard. For hyperpolarized T1 measurements compound 21 was mixed with 1 equivalent HCl and dissolved to a final concentration of 1.3 M in 2:3 H2O:glycerol with 15 mM of a OX063 radical. The sample was polarized for at least 1 h in a SpinSolve polarizer. […] This was performed twice and the calculated T1 values were averaged.
(§4) The FWHM of the guanidine-carbon peak for natural abundance and compound 21 was measured to be 1.4 Hz and 1.0 Hz, respectively, and the FWHM of carbon-1 was 0.9 Hz for both compounds (FIG. 5B).
Therefore, the present methods may be used to follow Arg-1 activity within a tumor and serve as a surrogate readout of TAM infiltration. As such, this information may be used in therapy selection, monitoring therapeutic efficacy, and determining prognosis.

[3] = target: T2, human recombinant arginase-1 (Homo sapiens, UniProt P05089); experiment: Michaelis-Menten kinetics, colorimetric urea assay; assay type: biochemical; settings: 37° C., compound as substrate
T2 sequence (P05089 1-322): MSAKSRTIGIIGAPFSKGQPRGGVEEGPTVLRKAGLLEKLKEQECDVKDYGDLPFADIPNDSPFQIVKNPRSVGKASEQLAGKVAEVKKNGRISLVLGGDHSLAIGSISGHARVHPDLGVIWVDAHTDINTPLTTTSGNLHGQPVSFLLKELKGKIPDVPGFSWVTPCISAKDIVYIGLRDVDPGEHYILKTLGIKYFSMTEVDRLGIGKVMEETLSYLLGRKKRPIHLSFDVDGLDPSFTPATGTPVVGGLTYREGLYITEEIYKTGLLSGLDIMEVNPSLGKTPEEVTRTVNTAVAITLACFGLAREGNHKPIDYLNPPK

[4] = Hyperpolarized T1 of arginine guanidine-carbon at 1T; assay type: physicochemical; settings: 30° flip angle, 3 s repetition time, average of two
Method: as §3, §4

arginase = target: T3, arginase (Mus musculus, UniProt Q61176); experiment: In vivo conversion of injected labeled arginine to urea in mouse liver (13C-NMR of extract); settings: Balb/c mouse, tail vein 250 μL 20 mM, 1 min post-injection, extrapolated to a 1 g liver
T3 construct: from tissue; host or cells: liver of a living Balb/c mouse (in vivo)
T3 sequence (Q61176 1-323): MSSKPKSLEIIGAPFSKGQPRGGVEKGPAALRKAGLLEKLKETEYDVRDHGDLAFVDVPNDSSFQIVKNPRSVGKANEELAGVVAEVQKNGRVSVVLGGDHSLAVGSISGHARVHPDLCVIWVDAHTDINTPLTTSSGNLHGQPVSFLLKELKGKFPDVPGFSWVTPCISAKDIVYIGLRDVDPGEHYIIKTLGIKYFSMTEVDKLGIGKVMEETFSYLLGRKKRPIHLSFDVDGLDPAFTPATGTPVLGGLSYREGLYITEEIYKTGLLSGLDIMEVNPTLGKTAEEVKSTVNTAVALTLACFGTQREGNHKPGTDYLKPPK
Method: In vivo assay: A female, Balb/c mouse was equipped with a tail vein cannula and placed under anesthesia (1.5% isoflurane, 1 L/min for 30 mins), after which it was injected with 250 μL 20 mM [6-^13C, ^15N3]-arginine in 100 mM Tris, 1 mM EDTA pH 7.4 (in addition to another 100 μL of 10 U/mL heparin in saline which was in the dead space of the cannula) over the course of 10 seconds. 1 minute post-injection, the mouse was sacrificed via cervical dislocation, and the liver was collected and frozen in liquid nitrogen. 118 mg of the liver was extracted in 4% perchloric acid, the metabolite extract mixture was dried and subsequently re-suspended in D2O containing the glycine standard and 0.5 mM Gd-DOTA. A ^13C-NMR spectrum was acquired on a 600 MHz spectrometer (FIG. 10).

[5] = Thermal equilibrium T1 at high field (14.1T), inversion recovery; assay type: physicochemical; settings: for T1 Value (s) D2O: 95:5 D2O:H2O, 100 mM Tris pD 7.4; for T1 Value (s) H2O: 100% H2O, 100 mM Tris pH 7.4
Method: (§5) [5-^13C]-glutamine (Cambridge Isotope Laboratories), [^13C]-urea (Sigma Aldrich), [^13C, ^15N2]-urea (Sigma Aldrich), [6-^13C]-arginine (Cambridge Isotope Laboratories), [5-^13C, ^15N]-glutamine (24) (24, as described in Example 7) and [6-^13C, ^15N3]-arginine (21, as described in Example 2) were evaluated to determine thermal equilibrium T1 and T2. An aliquot of each compound was dissolved in 95:5 D2O:H2O containing 100 mM Tris pD 7.4 and 100% H2O containing 100 mM Tris pH 7.4. [^13C]-urea and [^13C, ^15N2]-urea were dissolved to a final concentration of 100 mM.
(§6) ^13C NMR spectra for each compound dissolved in 95:5 D2O:H2O and 100% H2O was obtained with a 14.1T ^13C NMR (Bruker, USA). For inversion recovery experiments, 13 to 15 different delay times between the 180° and 90° pulses, spanning 3T1, were sampled. Each spectrum was an average of 3 to 4 scans, and a 5T1 to 6T1 pre-scan wait time was used to allow re-polarization of carbon nuclear spins between scans. T2 values were measured using a Carr-Purcell-Meiboom-Gill (CPMG) sequence for each compound dissolved in 95:5 D2O:H2O and 100% H2O. A 10 ms (or 5 ms ^13C-urea samples) wait-time between 180° pulses was used, and signal was acquired at total echo times spanning 3T2. For both T1- and T2-relaxation curve fitting, spectra were imported into Mnova (Mestrelabs, USA) and the area under the curve (AUC) of the ^13C resonance of interest was integrated. AUC values were exported to Prism 7 (GraphPad Software, USA), plotted against time on the x-axis, and data points were fit to the Bloch equations for T1 and T2.
(§7) When each compound was dissolved in D2O, the exchangeable protons on the nitrogen atoms rapidly exchange with deuterium in the solvent. As described in Table 1, at high field, each compound having protons exchanged with deuterium extended the T1 of ^13C relaxation times directly bonded to —NH or —NH2 residues, respectively. This effect is further illustrated for [6-^13C]-/[6-^13C, ^15N3]-arginine in FIG. 7.

[6] = Thermal equilibrium T2 at high field (14.1T), CPMG; assay type: physicochemical; settings: for T2 Value (s) D2O: 95:5 D2O:H2O, 100 mM Tris pD 7.4; for T2 Value (s) H2O: 100% H2O, 100 mM Tris pH 7.4
Method: as §5, §6, §7

[7] = Hyperpolarized T1 at 1T after dissolution in buffered H2O or D2O; assay type: physicochemical; settings: for Hyperpolarized T1 Value (s) D2O: dissolution in 100 mM Tris 1 mM EDTA pD 7.4 D2O; for Hyperpolarized T1 Value (s) H2O: dissolution in 100 mM Tris 1 mM EDTA pH 7.4 H2O
Method: Each compound was prepared with a different formulation, as follows: [5-^13C]- and [5-^13C, ^15N]-glutamine was mixed with 1.1 equivalent HCl and dissolved to a final concentration of 1.5 Min H2O:DMSO (65:35). [^13C]— and [^13C, ^15N2]-urea was dissolved to a final concentration of 6M in glycerol. [6-^13C]- and [6-^13C, ^15N3]-arginine was mixed with 1 equivalent HCl and dissolved to a final concentration of 3.2M in H2O. Each of these preparations also contained OX063 radical (General Electric, UK) dissolved to a final concentration of 15 mM. [^13C]—/[^13C, ^15N2]-urea and [6-^13C]-/[6-^13C, ^15N3]-arginine samples were polarized in a 3.35T SpinLab Polarizer (General Electric, UK) for 1.5 hours (0.83K, 93.98 GHz), while: [5-^13C]-/[^13C, ^15N]-glutamine samples were polarized in a 5T SpinLab Polarizer for 2 hours (0.83K, 93.98 GHz). Following polarization, the HP substrate was ejected from the polarizer via rapid dissolution, during which a superheated solution of 100 mM Tris 1 mM EDTA in pH 7.4 H2O or pD 7.4 D2O is run through the sample vial to dissolve the polarized substrate and eject it into a pre-chilled glass vial (−20° C.).

T1 sequence (Q00519 whole entry): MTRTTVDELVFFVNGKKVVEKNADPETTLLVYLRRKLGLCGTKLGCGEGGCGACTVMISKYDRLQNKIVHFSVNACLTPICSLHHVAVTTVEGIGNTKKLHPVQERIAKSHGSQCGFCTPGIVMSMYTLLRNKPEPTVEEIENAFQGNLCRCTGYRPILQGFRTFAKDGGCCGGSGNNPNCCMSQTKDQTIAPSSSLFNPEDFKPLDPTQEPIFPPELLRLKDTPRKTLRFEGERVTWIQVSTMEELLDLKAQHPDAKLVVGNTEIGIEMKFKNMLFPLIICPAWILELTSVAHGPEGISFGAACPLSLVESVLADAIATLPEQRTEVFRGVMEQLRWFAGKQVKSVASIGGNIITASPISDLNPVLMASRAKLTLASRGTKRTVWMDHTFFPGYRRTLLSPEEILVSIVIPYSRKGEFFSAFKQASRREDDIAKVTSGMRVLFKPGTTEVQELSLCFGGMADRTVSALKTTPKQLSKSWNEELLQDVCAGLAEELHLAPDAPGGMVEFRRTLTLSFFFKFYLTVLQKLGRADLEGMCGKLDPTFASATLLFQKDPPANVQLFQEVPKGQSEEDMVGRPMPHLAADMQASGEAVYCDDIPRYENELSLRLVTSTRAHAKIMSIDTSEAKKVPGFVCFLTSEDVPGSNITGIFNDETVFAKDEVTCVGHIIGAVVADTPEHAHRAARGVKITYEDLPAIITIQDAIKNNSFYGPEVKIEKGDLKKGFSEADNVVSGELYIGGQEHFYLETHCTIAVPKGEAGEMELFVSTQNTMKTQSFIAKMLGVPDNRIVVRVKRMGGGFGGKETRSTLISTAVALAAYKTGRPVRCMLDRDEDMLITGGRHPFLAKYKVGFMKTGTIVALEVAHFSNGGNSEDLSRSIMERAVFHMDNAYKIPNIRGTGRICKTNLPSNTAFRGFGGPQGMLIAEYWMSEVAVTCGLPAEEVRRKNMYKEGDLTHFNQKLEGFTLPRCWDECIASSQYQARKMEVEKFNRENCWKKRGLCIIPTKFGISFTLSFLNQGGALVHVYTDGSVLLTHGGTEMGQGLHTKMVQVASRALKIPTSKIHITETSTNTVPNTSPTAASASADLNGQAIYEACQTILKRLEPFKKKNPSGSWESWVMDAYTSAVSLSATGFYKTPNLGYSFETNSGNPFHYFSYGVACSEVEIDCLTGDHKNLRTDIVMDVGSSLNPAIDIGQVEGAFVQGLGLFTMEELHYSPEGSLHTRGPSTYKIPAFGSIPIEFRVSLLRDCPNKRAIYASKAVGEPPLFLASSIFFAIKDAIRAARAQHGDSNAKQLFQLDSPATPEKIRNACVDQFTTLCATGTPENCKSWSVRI

| Molecule | T1 (spin-lattice relaxation time) [1] [s] | time to be oxidized in liver extracts (Xanthine Oxidase (XO)) | oxidative stress (CellRox fluorescence) (U251 cells) | FWHM of the guanidine-carbon peak [2] [Hz] | FWHM of carbon-1 [2] [Hz] | Vmax [3] [s⁻¹] | decrease of FWHMguanidine:FWHMcarbon-1 ratio ([2]; labeled versus natural abundance arginine) [%] | T1 of the guanidine-carbon [4] | Km [3] [µM] | [13C, 15N2]-urea produced, share of the total injected arginine dose (arginase) | T1 Value (s) D2O [5] [s] | T1 Value (s) H2O [5] [s] | T2 Value (s) D2O [6] [s] | T2 Value (s) H2O [6] [s] | Hyperpolarized T1 Value (s) D2O [7] [s] | Hyperpolarized T1 Value (s) H2O [7] [s] |
| --- | --- | --- | --- | --- | --- | --- | --- | --- | --- | --- | --- | --- | --- | --- | --- | --- |
| O=c1[15nH][13c](=O)[15nH]c2nc[nH]c12 [Compound 6, [2-^13C, 1,3-^15N2]-3,7-dihydro-1H-purine-2,6-dione] | 77 ± 1.4 | less than 10 minutes | reduced | – | – | – | – | – | – | – | – | – | – | – | – | – |
| N=C(N)NCCC[C@H](N)C(=O)O [natural abundance arginine, arginine] | – | – | – | 1.4 | 0.9 | 54.8 ± 2.2 | – | – | – | – | – | – | – | – | – | – |
| [6-^13C, 6-^15N3]-L-Arginine-HCl [Compound 21] | – | – | – | 1.0 | 0.9 | 48.2 ± 2.0 | 29 | 20.4 ± 0.4 s | 2040 ± 270 | approx. 3% | 9.71 ± 0.26 | 6.83 ± 0.19 | 2.68 ± 0.03 | 0.82 ± 0.02 | 31.2 ± 6.8 | 13.3 ± 0.8 |
| N=[13C](N)NCCC[C@H](N)C(=O)O [Arginine ^13C, [6-^13C]-arginine] | – | – | – | – | – | – | – | could not be measured | – | – | 9.74 ± 0.32 | 6.62 ± 0.22 | 0.234 ± 0.004 | 0.184 ± 0.003 | 32.1 ± 4.5 | – |
| N[13C](N)=O [Urea ^13C, [^13C]-urea] | – | – | – | – | – | – | – | – | – | – | 57.24 ± 3.95 | 31.01 ± 1.18 | 0.100 ± 0.002 | 0.089 ± 0.001 | 123.8 ± 19.6 | 51.6 ± 5.44 |
| N[C@@H](CC[13C]([15NH2])=O)C(=O)O [Compound 24, (5-13C, 5-15N) L-glutamine] | – | – | – | – | – | – | – | – | – | – | 12.29 ± 0.32 | 10.79 ± 0.34 | 4.66 ± 0.67 | 3.35 ± 0.21 | 31.2 ± 3.8 | 23.6 ± 2.1 |
| N[C@@H](CC[13C](N)=O)C(=O)O [Glutamine ^13C, [5-^13C]-glutamine] | – | – | – | – | – | – | – | – | – | – | 12.34 ± 0.21 | 10.66 ± 0.34 | 0.455 ± 0.004 | 0.354 ± 0.003 | 34.1 ± 2.5 | 21.8 ± 1.8 |
